This is an account of results in ChEMBL document CHEMBL4020836, “Discovery of 7-Oxo-2,4,5,7-tetrahydro-6 H-pyrazolo[3,4- c]pyridine Derivatives as Potent, Orally Available, and Brain-Penetrating Receptor Interacting Protein 1 (RIP1) Kinase Inhibitors: Analysis of Structure-Kinetic Relationships” (J Med Chem, 2018).

The nature of series [1]: Metabolic stability in mouse liver microsomes. The class given is ADME, microsome. Particulars: read-out: Stability. On the technique in general: Liver microsomes are a subcellular fraction often used to study metabolism.
Series [2] can be described thus: Metabolic stability in human liver microsomes. Format: ADME, microsome. Particulars: read-out: Stability.

`CNC(=O)c1ccc2c(c1)OC[C@H](N1CCc3c(nn(Cc4ccccc4)c3Cl)C1=O)C(=O)N2C`: the microsomal CLint in series [1] was below 1 µL/min/mg; in series [2] it was 13 µL/min/mg.

On to `CN1C(=O)[C@@H](N2CCc3c(nn(Cc4ccccc4)c3Cl)C2=O)COc2ccccc21`, for which the microsomal CLint in series [1] was 100 µL/min/mg; in series [2] it was 101 µL/min/mg.
